Test results from patent US20070128217A1 (priority 2003, published 2007).

Experiments:
[1] = system: antibodies in sera from SARS patients (sera 1a, 1b, 2, 6, 37, 62, London, SARS-yellow, SARS-green); format: binding, human; parameters: Binding of serum 6 to linear peptides of protein X1 of SARS-CoV Urbani / Binding of serum 37 to linear peptides of protein X1 of SARS-CoV Urbani / Binding of serum 6 to looped/cyclic peptide (PEPSCAN-ELISA) / Binding of serum 37 to looped/cyclic peptide (PEPSCAN-ELISA) / Binding of serum 37 to looped/cyclic peptides of protein X1 of SARS-CoV Urbani / Binding of serum 6 to linear peptides of protein X2 / Binding of serum 37 to linear peptides of protein X2 / Binding of serum 37 to looped/cyclic peptides of protein X2 of SARS-CoV Urbani / Binding of serum 6 to linear peptides of protein M of SARS-CoV Urbani / Binding of serum 37 to linear peptides of protein M of SARS-CoV Urbani / Binding of serum 6 to looped/cyclic peptides of protein M of SARS-CoV Urbani / Binding of serum 37 to looped/cyclic peptides of protein M of SARS-CoV Urbani / Binding of serum 6 to linear peptides of protein X3 of SARS-CoV Urbani / Binding of serum 37 to linear peptides of protein X3 of SARS-CoV Urbani / Binding of serum 37 to looped/cyclic peptides of protein X3 of SARS-CoV Urbani / Binding of serum 6 to linear peptides of protein X4 of SARS-CoV Urbani / Binding of serum 37 to linear peptides of protein X4 of SARS-CoV Urbani / Binding of serum 37 to looped/cyclic peptides of protein X4 of SARS-CoV Urbani / Binding of serum 6 to linear peptides of protein X5 of SARS-CoV Urbani / Binding of serum 37 to linear peptides of protein X5 of SARS-CoV Urbani / Binding of serum 37 to looped/cyclic peptides of protein X5 of SARS-CoV Urbani / Binding of serum 6 to linear peptides of protein N of SARS-CoV Urbani / Binding of serum 37 to linear peptides of protein N of SARS-CoV Urbani / Binding of serum 6 to linear peptide (PEPSCAN-ELISA) / Binding of serum 1a to looped/cyclic peptides of protein N of SARS-CoV Urbani / Binding of serum 1b to looped/cyclic peptides of protein N of SARS-CoV Urbani / Binding of serum 2 to looped/cyclic peptides of protein N of SARS-CoV Urbani / Binding of serum 6 to looped/cyclic peptides of protein N of SARS-CoV Urbani / Binding of serum 37 to looped/cyclic peptides of protein N of SARS-CoV Urbani / Binding of serum 62 to looped/cyclic peptides of protein N of SARS-CoV Urbani / Binding of serum London to looped/cyclic peptides of protein N of SARS-CoV Urbani / Binding of serum SARS-green to looped/cyclic peptides of protein N of SARS-CoV Urbani: unit not given here
[2] = system: control sera (pooled serum of ten healthy LUMC hospital workers; commercial negative donor pooled serum from the Dutch bloodbank); format: binding, human; parameters: Binding of Control serum LUMC to linear peptides / Binding of Control serum Blood-bank to linear peptides / Binding of Control serum LUMC to looped peptides / Binding of Control Serum Blood-Bank to Looped peptides / Binding of Control serum LUMC to linear peptides of the protein M of SARS-CoV Urbani / Binding of Control serum Blood-bank to linear peptides of the protein M of SARS-CoV Urbani / Binding of Control serum LUMC to looped peptides of the protein M of SARS-CoV Urbani / Binding of Control Serum Blood-Bank to Looped peptides of the protein M of SARS-CoV Urbani: unit not given here
[3] = system: rabbit serum obtained by immunizing a rabbit with the SARS-CoV strain Frankfurt 1; format: binding; parameters: Binding of a rabbit serum to linear peptides / Binding of a rabbit serum to looped peptides / Rabbit serum linear peptides / Rabbit serum looped peptides / Binding of a rabbit serum to linear peptides of protein N of SARS-CoV Urbani (Rabbit serum linear peptides) / Binding of a rabbit serum to looped/cyclic peptides of protein N of SARS-CoV Urbani (Rabbit serum looped peptides): unit not given here
[4] = system: recombinant human anti-SARS-CoV antibody 03-018; format: binding; parameters: Binding of antibody 03-018 to linear peptides of the N protein of SARS-CoV Urbani / Binding of antibody 03-018 to looped/cyclic peptides of the N protein of SARS-CoV Urbani: unit not given here

Sequence | Binding of serum 1a to linear peptides of protein N of SARS-CoV Urbani [1] | Binding of serum 1a to looped/cyclic peptides of protein N of SARS-CoV Urbani [1] | Binding of serum 1b to linear peptides of protein N of SARS-CoV Urbani [1] | Binding of serum 1b to looped/cyclic peptides of protein N of SARS-CoV Urbani [1] | Binding of serum 2 to linear peptides of protein N of SARS-CoV Urbani [1] | Binding of serum 2 to looped/cyclic peptides of protein N of SARS-CoV Urbani [1] | Binding of serum 6 to linear peptides of protein N of SARS-CoV Urbani [1] | Binding of serum 6 to looped/cyclic peptides of protein N of SARS-CoV Urbani [1] | Binding of serum 37 to linear peptides of protein N of SARS-CoV Urbani [1] | Binding of serum 37 to looped/cyclic peptides of protein N of SARS-CoV Urbani [1] | Binding of serum 62 to linear peptides of protein N of SARS-CoV Urbani [1] | Binding of serum 62 to looped/cyclic peptides of protein N of SARS-CoV Urbani [1] | Binding of serum London to linear peptides of protein N of SARS-CoV Urbani [1] | Binding of serum London to looped/cyclic peptides of protein N of SARS-CoV Urbani [1] | Binding of serum SARS-green to linear peptides of protein N of SARS-CoV Urbani [1] | Binding of serum SARS-green to looped/cyclic peptides of protein N of SARS-CoV Urbani [1] | Binding of serum SARS-yellow to linear peptides of protein N of SARS-CoV Urbani [1] | Binding of serum SARS-yellow to looped/cyclic peptides of protein N of SARS-CoV Urbani [1] | Binding of a rabbit serum to linear peptides of protein N of SARS-CoV Urbani (Rabbit serum linear peptides) [3] | Binding of a rabbit serum to looped/cyclic peptides of protein N of SARS-CoV Urbani (Rabbit serum looped peptides) [3] | other results
KKTDEAQPLPQRQKK | 0.2 | 0.2 | 0.1 | 0.1 | 0.3 | 0.1 | 0.4 | 0.0 | 0.7 | 0.4 | 0.6 | 0.2 | 1.7 | 0.2 | 0.2 | 0.0 | 1.1 | 0.0 | 0.2 | 0.0 | Control Serum Blood-Bank Looped peptides [2]: 0.4; Control serum Blood-bank linear peptides [2]: 0.7; Control serum LUMC linear peptides [2]: 0.7; Control serum LUMC looped peptides [2]: 0.3; Binding of antibody 03-018 to linear peptides of the N protein of SARS-CoV Urbani [4]: 0.1; Binding of antibody 03-018 to looped/cyclic peptides of the N protein of SARS-CoV Urbani [4]: 0.2
KMKELSPRWYFYYLG | 0.2 | 0.3 | 0.1 | 0.2 | 0.1 | 0.4 | 0.1 | 0.3 | 0.5 | 0.7 | 0.5 | 0.7 | 0.4 | 0.4 | 0.1 | 0.4 | 0.6 | 0.6 | 0.1 | 0.6 | Binding of Control Serum Blood-Bank to Looped peptides [2]: 0.8; Binding of Control serum Blood-bank to linear peptides [2]: 0.6; Binding of Control serum LUMC to linear peptides [2]: 0.5; Binding of Control serum LUMC to looped peptides [2]: 0.6; Binding of antibody 03-018 to linear peptides of the N protein of SARS-CoV Urbani [4]: 0.1; Binding of antibody 03-018 to looped/cyclic peptides of the N protein of SARS-CoV Urbani [4]: 0.2
KQRRPQGLPNNTASW | 0.2 | 0.4 | 0.1 | 0.2 | 0.2 | 0.4 | 0.1 | 0.4 | 0.7 | 0.6 | 0.6 | 0.5 | 0.4 | 0.6 | 0.3 | 0.3 | 0.5 | 0.7 | 0.1 | 0.6 | Binding of Control Serum Blood-Bank to Looped peptides [2]: 0.6; Binding of Control serum Blood-bank to linear peptides [2]: 0.7; Binding of Control serum LUMC to linear peptides [2]: 0.5; Binding of Control serum LUMC to looped peptides [2]: 0.6; Binding of antibody 03-018 to linear peptides of the N protein of SARS-CoV Urbani [4]: 0.1; Binding of antibody 03-018 to looped/cyclic peptides of the N protein of SARS-CoV Urbani [4]: 0.2
